Measured values as given in US20250320189A1, “NEW DERIVATIVES FOR TREATING TRPM3 MEDIATED DISORDERS” (Katholieke Universiteit Leuven, priority 2022, published 2025).

Test system: wild type mice / knock-out TRPM3 mice
Assay: not given
Conditions: wild type mice vs knock-out TRPM3 mice; cited from earlier work
In the case of pregnenolone sulfate, the evoked pain is listed as “evoked pain in wild type mice but not in knock-out TRPM3 mice”.

Biological target: T1, mouse TRPM3α2 (mTRPM3) ion channel (Mus musculus, UniProt J9SQF3)
T1 construct: expressed in transfected cells; host or cells: flip-in (Flp-In) HEK293
T1 sequence (J9SQF3 1-1709 isoform J9SQF3-12): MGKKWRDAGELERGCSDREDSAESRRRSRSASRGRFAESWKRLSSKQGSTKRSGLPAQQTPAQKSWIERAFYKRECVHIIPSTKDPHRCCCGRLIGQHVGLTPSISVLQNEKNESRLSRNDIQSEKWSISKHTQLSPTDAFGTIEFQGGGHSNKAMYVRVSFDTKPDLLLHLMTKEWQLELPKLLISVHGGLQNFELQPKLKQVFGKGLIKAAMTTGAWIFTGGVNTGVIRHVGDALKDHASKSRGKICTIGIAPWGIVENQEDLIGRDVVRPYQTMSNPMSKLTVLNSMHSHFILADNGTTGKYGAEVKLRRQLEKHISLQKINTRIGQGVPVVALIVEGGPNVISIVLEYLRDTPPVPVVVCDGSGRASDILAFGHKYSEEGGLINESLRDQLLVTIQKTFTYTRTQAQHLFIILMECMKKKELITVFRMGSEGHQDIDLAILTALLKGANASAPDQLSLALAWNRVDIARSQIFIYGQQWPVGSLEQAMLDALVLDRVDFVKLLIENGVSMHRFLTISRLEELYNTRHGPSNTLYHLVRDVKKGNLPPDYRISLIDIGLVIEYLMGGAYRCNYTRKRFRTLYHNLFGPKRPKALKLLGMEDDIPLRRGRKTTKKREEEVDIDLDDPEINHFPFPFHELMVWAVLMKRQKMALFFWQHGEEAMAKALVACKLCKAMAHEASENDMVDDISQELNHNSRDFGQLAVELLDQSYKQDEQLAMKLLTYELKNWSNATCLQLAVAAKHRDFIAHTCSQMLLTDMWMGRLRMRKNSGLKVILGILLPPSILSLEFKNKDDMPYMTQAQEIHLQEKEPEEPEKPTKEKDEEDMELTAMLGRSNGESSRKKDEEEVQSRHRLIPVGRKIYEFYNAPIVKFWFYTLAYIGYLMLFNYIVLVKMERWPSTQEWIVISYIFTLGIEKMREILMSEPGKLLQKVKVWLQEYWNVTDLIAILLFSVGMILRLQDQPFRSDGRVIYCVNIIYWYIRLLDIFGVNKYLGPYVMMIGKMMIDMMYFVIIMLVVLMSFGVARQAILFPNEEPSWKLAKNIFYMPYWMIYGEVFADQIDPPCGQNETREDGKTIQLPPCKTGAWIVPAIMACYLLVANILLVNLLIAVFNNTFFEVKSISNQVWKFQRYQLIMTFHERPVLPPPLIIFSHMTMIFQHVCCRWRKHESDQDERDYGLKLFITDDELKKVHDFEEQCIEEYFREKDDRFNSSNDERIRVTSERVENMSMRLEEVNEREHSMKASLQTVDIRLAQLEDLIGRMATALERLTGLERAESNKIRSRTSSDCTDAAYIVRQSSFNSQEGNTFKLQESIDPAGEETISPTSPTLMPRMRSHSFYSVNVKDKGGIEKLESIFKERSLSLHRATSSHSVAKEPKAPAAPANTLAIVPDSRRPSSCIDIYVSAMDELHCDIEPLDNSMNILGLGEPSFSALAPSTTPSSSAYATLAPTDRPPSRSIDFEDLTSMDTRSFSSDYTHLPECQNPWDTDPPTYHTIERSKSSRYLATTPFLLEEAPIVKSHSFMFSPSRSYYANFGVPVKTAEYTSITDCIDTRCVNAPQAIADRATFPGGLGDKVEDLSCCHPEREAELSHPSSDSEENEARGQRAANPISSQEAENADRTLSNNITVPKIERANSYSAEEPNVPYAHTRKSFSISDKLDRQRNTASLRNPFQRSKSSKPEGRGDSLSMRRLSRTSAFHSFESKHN
Assay: Monitoring the TRPM3 ion channel driven Ca2+ uptake (Fluo-4 AM assay)
Format: cell-based
Conditions: mTRPM3alpha2 overexpressing flip-in HEK293 cells, stimulated with Pregnenolone sulfate (PS) 50 μM
Method in brief: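 Flp-In HEK293 cells overexpressing mTRPM3α2 were loaded with Fluo-4 AM and added to plates holding compound plus 50 μM pregnenolone sulfate in Ca²⁺-containing Krebs buffer. Fluorescence (ex 485/em 535) was read right after cell addition. Inhibition was calculated against vehicle-stimulated and positive-control-inhibitor wells, with IC50 derived from it.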
With `Cc1oc2ccc(OCC3(C(F)F)CC3)cc2c1C(=O)N[C@@H](CO)C(N)=O` [Cpd 003, (2S)-2-[(5-{[1-(difluoromethyl)cyclopropyl]methoxy}-2-methyl-1-benzofuran-3-yl)formamido]-3-hydroxypropanamide] the IC50 was < 1000 nM.
With `NC(=O)[C@H](CO)NC(=O)c1c(C2CC2)oc2ccc(OCC3CC3)cc12` [Cpd 004, (2S)-2-{[2-cyclopropyl-5-(cyclopropylmethoxy)-1-benzofuran-3-yl]formamido}-3-hydroxypropanamide] the IC50 was < 1000 nM.
For `Cc1oc2ccc(OCCC3CC3)cc2c1C(=O)N[C@@H](CO)C(N)=O` [Cpd 005, (2S)-2-{[5-(2-cyclopropylethoxy)-2-methyl-1-benzofuran-3-yl]formamido}-3-hydroxypropanamide], the IC50 was < 1000 nM.
In the case of `Cc1oc2ccc(OCC3CCC3)cc2c1C(=O)N[C@@H](CO)C(N)=O` [Cpd 006, (2S)-2-{[5-(cyclobutylmethoxy)-2-methyl-1-benzofuran-3-yl]formamido}-3-hydroxypropanamide], the IC50 is reported as < 1000 nM.
For `Cc1oc2ccc(OCC3CCC3)cc2c1C(=O)N[C@@H](C)C(N)=O` [Cpd 007, (2S)-2-{[5-(cyclobutylmethoxy)-2-methyl-1-benzofuran-3-yl]formamido}propanamide], the IC50 was < 1000 nM.
For `NC(=O)[C@H](CO)NC(=O)c1c(C(F)F)oc2ccc(OCC3CC3)cc12` [Cpd 008, (2S)-2-{[5-(cyclopropylmethoxy)-2-(difluoromethyl)-1-benzofuran-3-yl]formamido}-3-hydroxypropanamide], the IC50 was < 1000 nM.
In the case of `Cc1oc2ccc(OCC3CC3)cc2c1C(=O)N[C@H](CO)C(N)=O` [Cpd 009, (2R)-2-{[5-(cyclopropylmethoxy)-2-methyl-1-benzofuran-3-yl]formamido}-3-hydroxypropanamide], the IC50 is reported as < 1000 nM.
In the case of `Cc1oc2ccc(OCC3CC3)cc2c1C(=O)N[C@@H](C)C(N)=O` [Cpd 010, (2S)-2-{[5-(cyclopropylmethoxy)-2-methyl-1-benzofuran-3-yl]formamido}propanamide], the IC50 is reported as < 1000 nM.
With `Cc1oc2ccc(OCC3(C(F)F)CC3)cc2c1C(=O)N[C@H](C(N)=O)[C@@H](C)O` [Cpd 011, (2S,3R)-2-[(5-{[1-(difluoromethyl)cyclopropyl]methoxy}-2-methyl-1-benzofuran-3-yl)formamido]-3-hydroxybutanamide] the IC50 was < 1000 nM.
In the case of `Cc1oc2ccc(OCCC3CC3)cc2c1C(=O)N[C@H](C(N)=O)[C@@H](C)O` [Cpd 012, (2S,3R)-2-{[5-(2-cyclopropylethoxy)-2-methyl-1-benzofuran-3-yl]formamido}-3-hydroxybutanamide], the IC50 is reported as < 1000 nM.
In the case of `Cc1oc2ccc(OCC3CCCC3(F)F)cc2c1C(=O)NC(CO)C(N)=O` (stereo not drawn) [Cpd 013, 2-({5-[(2,2-difluorocyclopentyl)methoxy]-2-methyl-1-benzofuran-3-yl}formamido)-3-hydroxypropanamide], the IC50 is reported as < 1000 nM.
With `Cc1oc2ccc(OCC3CCC3)cc2c1C(=O)NC(C)(C)C(N)=O` [Cpd 015, 2-{[5-(cyclobutylmethoxy)-2-methyl-1-benzofuran-3-yl]formamido}-2-methylpropanamide] the IC50 was < 1000 nM.
With `Cc1oc2ccc(OCC3CC3)cc2c1C(=O)NC(C)(C)C(N)=O` [Cpd 016, 2-{[5-(cyclopropylmethoxy)-2-methyl-1-benzofuran-3-yl]formamido}-2-methylpropanamide] the IC50 was < 1000 nM.
For `Cc1oc2ccc(OCC3CCC3)cc2c1C(=O)NC(C)(CO)CO` [Cpd 018, 5-(cyclobutylmethoxy)-N-(1,3-dihydroxy-2-methylpropan-2-yl)-2-methyl-1-benzofuran-3-carboxamide], the IC50 was < 1000 nM.
In the case of `Cc1oc2ccc(OCC3CCCCC3)cc2c1C(=O)NC1CCN(C)CC1` [Cpd 020, 5-(cyclohexylmethoxy)-2-methyl-N-(1-methylpiperidin-4-yl)-1-benzofuran-3-carboxamide], the IC50 is reported as > 20000 nM.
For `Cc1oc2ccc(OCC3CC3)cc2c1C(=O)NC1CCN(C)CC1` [Cpd 021, 5-(cyclopropylmethoxy)-2-methyl-N-(1-methylpiperidin-4-yl)-1-benzofuran-3-carboxamide], the IC50 was 1000 to 20000 nM.
In the case of `Cc1oc2ccc(OCC3CC3)cc2c1C(=O)NC1CCOCC1` [Cpd 022, 5-(cyclopropylmethoxy)-2-methyl-N-(oxan-4-yl)-1-benzofuran-3-carboxamide], the IC50 is reported as 1000 to 20000 nM.
In the case of `Cc1oc2ccc(OCC3CC3)cc2c1C(=O)NC(C)(CO)CO` [Cpd 023, 5-(cyclopropylmethoxy)-N-(1,3-dihydroxy-2-methylpropan-2-yl)-2-methyl-1-benzofuran-3-carboxamide], the IC50 is reported as < 1000 nM.
With `Cc1oc2ccc(OCC3CC3)cc2c1C(=O)NC1(CO)CCC1` [Cpd 025, 5-(cyclopropylmethoxy)-N-[1-(hydroxymethyl)cyclobutyl]-2-methyl-1-benzofuran-3-carboxamide] the IC50 was < 1000 nM.
In the case of `Cc1oc2ccc(OCC3CC3)cc2c1C(=O)NC1(CO)CC1` [Cpd 026, 5-(cyclopropylmethoxy)-N-[1-(hydroxymethyl)cyclopropyl]-2-methyl-1-benzofuran-3-carboxamide], the IC50 is reported as 1000 to 20000 nM.
For `Cc1oc2ccc(OCC3CC3)cc2c1C(=O)NC1(CO)COC1` [Cpd 029, 5-(cyclopropylmethoxy)-N-[3-(hydroxymethyl)oxetan-3-yl]-2-methyl-1-benzofuran-3-carboxamide], the IC50 was < 1000 nM.
In the case of `Cc1oc2ccc(OCC3CC3)cc2c1C(=O)NC1(CO)CCOCC1` [Cpd 030, 5-(cyclopropylmethoxy)-N-[4-(hydroxymethyl)oxan-4-yl]-2-methyl-1-benzofuran-3-carboxamide], the IC50 is reported as < 1000 nM.
For `Cc1oc2ccc(OCC3CC3)cc2c1C(=O)NC1(C(N)=O)COC1` [Cpd 034, N-(3-carbamoyloxetan-3-yl)-5-(cyclopropylmethoxy)-2-methyl-1-benzofuran-3-carboxamide], the IC50 was < 1000 nM.
With `Cc1oc2ccc(OCC3CC3)cc2c1C(=O)NC1(C(N)=O)CCOCC1` [Cpd 037, N-(4-carbamoyloxan-4-yl)-5-(cyclopropylmethoxy)-2-methyl-1-benzofuran-3-carboxamide] the IC50 was < 1000 nM.
In the case of `Cc1oc2ccc(OCC(F)F)cc2c1C(=O)N[C@@H](CO)C(N)=O` [Cpd 038, (2S)-2-{[5-(2,2-difluoroethoxy)-2-methyl-1-benzofuran-3-yl]formamido}-3-hydroxypropanamide], the IC50 is reported as < 1000 nM.
With `Cc1oc2ccc(OCC(C)(C)C)cc2c1C(=O)N[C@@H](CO)C(N)=O` [Cpd 039, (2S)-2-{[5-(2,2-dimethylpropoxy)-2-methyl-1-benzofuran-3-yl]formamido}-3-hydroxypropanamide] the IC50 was < 1000 nM.
For `Cc1oc2ccc(OCC(F)F)cc2c1C(=O)N[C@H](C(N)=O)[C@@H](C)O` [Cpd 040, (2S,3R)-2-{[5-(2,2-difluoroethoxy)-2-methyl-1-benzofuran-3-yl]formamido}-3-hydroxybutanamide], the IC50 was < 1000 nM.

Test system: rat pain model
Assay: not given
Conditions: cited from earlier work
For `O=C1C[C@@H](c2ccc(O)cc2)Oc2cc(O)ccc21` [Liquiritigenin], the “mechanical and cold hyperalgesia” value is listed as “decrease mechanical and cold hyperalgesia”.

Biological target: TRPM3 (Homo sapiens, UniProt Q9HCF6)
Sequence (Q9HCF6 whole entry, species assumed): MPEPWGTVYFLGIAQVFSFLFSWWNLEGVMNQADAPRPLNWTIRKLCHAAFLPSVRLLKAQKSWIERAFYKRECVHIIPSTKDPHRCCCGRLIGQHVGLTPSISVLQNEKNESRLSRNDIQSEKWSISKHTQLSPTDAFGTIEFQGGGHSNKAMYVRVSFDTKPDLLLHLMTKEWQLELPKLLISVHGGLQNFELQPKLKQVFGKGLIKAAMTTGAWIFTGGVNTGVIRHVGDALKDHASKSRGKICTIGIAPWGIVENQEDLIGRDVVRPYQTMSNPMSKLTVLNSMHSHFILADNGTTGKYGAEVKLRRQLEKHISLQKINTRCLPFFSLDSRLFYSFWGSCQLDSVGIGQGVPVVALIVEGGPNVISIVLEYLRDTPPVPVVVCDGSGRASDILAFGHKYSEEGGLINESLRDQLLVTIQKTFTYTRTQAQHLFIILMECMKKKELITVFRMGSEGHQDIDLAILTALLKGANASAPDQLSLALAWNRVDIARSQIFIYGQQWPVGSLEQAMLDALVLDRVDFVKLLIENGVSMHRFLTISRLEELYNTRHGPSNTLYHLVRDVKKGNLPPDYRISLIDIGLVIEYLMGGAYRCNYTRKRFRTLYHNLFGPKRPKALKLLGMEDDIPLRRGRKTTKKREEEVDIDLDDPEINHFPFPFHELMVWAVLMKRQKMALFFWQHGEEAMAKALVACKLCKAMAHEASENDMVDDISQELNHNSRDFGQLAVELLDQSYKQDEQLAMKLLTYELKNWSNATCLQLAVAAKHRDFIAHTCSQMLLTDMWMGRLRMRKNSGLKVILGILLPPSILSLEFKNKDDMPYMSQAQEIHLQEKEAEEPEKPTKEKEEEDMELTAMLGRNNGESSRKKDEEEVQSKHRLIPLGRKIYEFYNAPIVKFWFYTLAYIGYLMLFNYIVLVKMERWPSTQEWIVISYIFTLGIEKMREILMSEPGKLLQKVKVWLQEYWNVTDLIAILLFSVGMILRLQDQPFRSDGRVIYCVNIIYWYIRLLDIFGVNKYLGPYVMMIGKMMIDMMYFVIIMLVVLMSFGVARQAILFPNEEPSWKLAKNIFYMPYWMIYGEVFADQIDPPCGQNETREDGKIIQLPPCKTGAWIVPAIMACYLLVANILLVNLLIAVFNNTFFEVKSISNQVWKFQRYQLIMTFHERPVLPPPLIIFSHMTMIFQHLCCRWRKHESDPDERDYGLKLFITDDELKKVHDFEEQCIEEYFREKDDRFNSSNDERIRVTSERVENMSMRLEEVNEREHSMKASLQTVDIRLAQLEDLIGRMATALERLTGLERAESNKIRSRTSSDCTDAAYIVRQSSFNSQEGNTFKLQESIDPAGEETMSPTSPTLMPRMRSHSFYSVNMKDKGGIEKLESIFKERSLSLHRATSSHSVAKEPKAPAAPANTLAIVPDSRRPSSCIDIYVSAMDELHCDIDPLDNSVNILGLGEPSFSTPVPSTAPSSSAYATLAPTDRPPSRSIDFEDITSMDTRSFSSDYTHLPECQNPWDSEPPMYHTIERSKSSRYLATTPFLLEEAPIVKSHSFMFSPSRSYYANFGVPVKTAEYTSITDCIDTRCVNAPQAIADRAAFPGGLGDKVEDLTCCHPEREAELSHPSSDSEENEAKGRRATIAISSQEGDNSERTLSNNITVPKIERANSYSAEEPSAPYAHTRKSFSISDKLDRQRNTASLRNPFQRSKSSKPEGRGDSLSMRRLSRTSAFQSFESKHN
Assay: not given
Conditions: cited from earlier work
For pregnenolone sulfate, the “activator of TRPM3” value is listed as “potent known activator”.
